Test system: male cynomolgus monkeys
Experiment: Sleep-inducing test by cisternal administration
Type: in vivo
Settings: cisternal infusion; for Sleep time: sleep time over three hours after administration, four male cynomolgus monkeys; for Number of slept animals: three hours after administration
Procedure: Sleep-Inducing Test by Cisternal Administration
Four male cynomolgus monkeys weighing 2.0-3.5 kg were individually placed in cages. The behaviors of the respective animals were recorded by videotape from one hour before drug administration to three hours after drug administration. Compound 16 was dissolved in physiological saline solution and sterilized using a Minipore filter. The drug was cisternally infused into the monkeys anesthetized with isoflurane inhalation. The dose was 10 μg/0.1 ml per monkey and 100 μg/0.1 ml per monkey. The same dose of the vehicle was infused cisternally to the control group. The test schedule was carried out according to the following protocol.
Week 1: Group treated with vehicle
Week 2: Group treated with 10 μg of Compound 16/monkey
Week 3: Group treated with 100 μg of Compound 16/monkey
The sleep times at three hours after administration were determined by playing back the recorded videotape and measuring the times (second) during which the animals relaxed with their both eyes closed, which are shown in Table 2.

O=C(O)C#CCCSCC1C(Cl)CC(O)C1C#CC(O)C1CCCCC1 (stereo not drawn) [Compound 16, 9-Deoxy-9β-chloro-16,17,18,19,20-pentanor-15-cyclohexyl-2,2,3,3,13,14-hexadehydro-6-thia-PGF1α]
Sleep time (10 μg/0.1 ml per monkey): 293 s
Number of slept animals (10 μg/0.1 ml per monkey): 3/4
Sleep time (100 μg/0.1 ml per monkey): 1734 s
Number of slept animals (100 μg/0.1 ml per monkey): 4/4

Reference: US7763652B2, “Prostaglandin derivatives” (Taisho Pharmaceutical Co., Ltd., priority 2002, dated 2010)
